According to patent US20250353855A1, “HETEROCYCLIC AND HETEROARYL COMPOUNDS FOR TREATING HUNTINGTON'S DISEASE” (PTC THERAPEUTICS, INC., priority 2022, published 2025):
Where two headings read alike, the source gives them in different places.

Test system: Endogenous Huntingtin Protein
Experiment: Endogenous Huntingtin Protein Assay (ELISA-based MSD electrochemiluminescence)
Assay type: cell-based
Details: MSD plates coated with MW1 (expanded polyglutamine) or MAB2166 capture antibody, lysates
Procedure: Compounds of Formula (T) were tested using the Meso Scale Discovery (MSD) Assay provided in International Application No. PCT/US2016/066042, filed on Dec. 11, 2016 and claiming priority to U.S. Provisional Application 62/265,652 filed on Dec. 10, 2015, the entire contents of which are incorporated herein by reference.
The Endogenous Huntingtin Protein assay used in Example 1 was developed using the ELISA-based MSD electrochemiluminescence assay platform.
Meso Scale Discovery (MSD) 96-well or 384-well plates were coated overnight at 4° C. with MW1 (expanded polyglutamine) or MAB2166 monoclonal antibody (for capture) at a concentration of 1 μg/mL in PBS (30 μL per well). Plates were then washed three times with 300 μL wash buffer (0.05% Tween-20 in PBS) and blocked (100 μL blocking buffer; 5% BSA in PBS) for 4-5 hours at room temperature with rotational shaking and then washed three times with wash buffer.
Samples (25 μL) were transferred to the antibody-coated MSD plate and incubated overnight at 4° C. After removal of the lysates, the plate was washed three times with wash buffer, and 25 μL of #5656S (Cell signaling; rabbit monoclonal) secondary antibody (diluted to 0.25 μg/mL in 0.05% Tween-20 in blocking buffer) was added to each well and incubated with shaking for 1 Hour at room temperature. Following incubation with the secondary antibody, the wells were rinsed with wash buffer after which 25 μL of goat anti-rabbit SULFO TAG secondary detection antibody (required aspect of the MSD system) (diluted to 0.25 μg/mL in 0.05% Tween-20 in blocking buffer) was added to each well and incubated with shaking for 1 hour at room temperature. After rinsing three times with wash buffer, 150 μL of read buffer T with surfactant (MSD) were added to each empty well, and the plate was imaged on a SI 6000 imager (MSD) according to manufacturers' instructions provided for 96- or 384-well plates.

| SMILES | IC50 (read-out: IC50) | IC50 |
| --- | --- | --- |
| Oc1cc2nccnc2cc1-c1cc2c(nn1)N([C@H]1CCNC3(CC3)C1)CC2 [Cpd 49, 7-{7-[(7S)-4-azaspiro[2.5]octan-7-yl]-6,7-dihydro-5H-pyrrolo[2,3-c]pyridazin-3-yl}quinoxalin-6-ol] | < 100 nM |  |
| Cn1nnc2cc(-c3cc4nnn(C5CC(C)(C)NC6(CC6)C5)c4nn3)c(O)cc21 (racemic) [Cpd 7, 5-[rac-3-(5,5-dimethyl-4-azaspiro[2.5]octan-7-yl)-3H-[1,2,3]triazolo[4,5-c]pyridazin-6-yl]-1-methyl-1H-benzotriazol-6-ol] | 500 to 1000 nM |  |
| Cc1nc2cc(O)c(-c3cc4c(nn3)N([C@H]3CC(C)(C)NC(C)(C)[C@H]3F)CC4)cc2o1 [Cpd 44, 6-{7-[(3S,4S)-3-fluoro-2,2,6,6-tetramethylpiperidin-4-yl]-6,7-dihydro-5H-pyrrolo[2,3-c]pyridazin-3-yl}-2-methyl-1,3-benzoxazol-5-ol] | < 100 nM |  |
| Cc1cnc2cc(-c3cc4c(nn3)N([C@H]3CC(C)(C)NC(C)(C)[C@H]3F)CC4)c(O)cc2c1 [Cpd 75, 7-{7-[(3S,4S)-3-fluoro-2,2,6,6-tetramethylpiperidin-4-yl]-6,7-dihydro-5H-pyrrolo[2,3-c]pyridazin-3-yl}-3-methylquinolin-6-ol] | < 100 nM |  |
| Cn1cc2cc(-c3cc4c(nn3)N([C@H]3CC(C)(C)NC(C)(C)[C@H]3F)CC4)c(O)c(F)c2n1 [Cpd 101, 7-fluoro-5-{7-[(3S,4S)-3-fluoro-2,2,6,6-tetramethylpiperidin-4-yl]-6,7-dihydro-5H-pyrrolo[2,3-c]pyridazin-3-yl}-2-methyl-2H-indazol-6-ol] | < 100 nM |  |
| Cc1cnc2cc(-c3cc4ccn([C@H]5CC(C)(C)NC(C)(C)[C@H]5F)c4nn3)c(O)cc2n1 [Cpd 5, 7-{7-[(3S,4S)-3-fluoro-2,2,6,6-tetramethylpiperidin-4-yl]-7H-pyrrolo[2,3-c]pyridazin-3-yl}-3-methylquinoxalin-6-ol] | < 100 nM |  |
| Cc1nc2cc(O)c(-c3cc4ccn([C@H]5C[C@@H]6CC[C@@H](N6)[C@H]5F)c4nn3)cc2s1 (single isomer, unassigned) [Cpd 10, 6-{7-[(1R,2R,3S,5S)-2-fluoro-8-azabicyclo[3.2.1]octan-3-yl]-7H-pyrrolo[2,3-c]pyridazin-3-yl}-2-methyl-1,3-benzothiazol-5-ol or 6-{7-[(1S,2S,3R,5R)-2-fluoro-8-azabicyclo[3.2.1]octan-3-yl]-7H-pyrrolo[2,3-c]pyridazin-3-yl}-2-methyl-1,3-benzothiazol-5-ol] | < 100 nM |  |
| CC1(C)C[C@H](N2CCc3cc(-c4cc5ccncc5cc4O)nnc32)[C@H](F)C(C)(C)N1 [Cpd 70, 6-{7-[(3S,4S)-3-fluoro-2,2,6,6-tetramethylpiperidin-4-yl]-6,7-dihydro-5H-pyrrolo[2,3-c]pyridazin-3-yl}isoquinolin-7-ol] | < 100 nM |  |
| Cc1nc2cc(-c3cc4c(nn3)N([C@H]3CC(C)(C)NC(C)(C)[C@H]3F)CC4)c(O)cc2n1C [Cpd 48, 5-{7-[(3S,4S)-3-fluoro-2,2,6,6-tetramethylpiperidin-4-yl]-6,7-dihydro-5H-pyrrolo[2,3-c]pyridazin-3-yl}-1,2-dimethyl-1H-benzimidazol-6-ol] | < 100 nM |  |
| Cc1nc2cc(O)c(-c3cc4ccn([C@H]5CC(C)(C)NC(C)(C)[C@H]5F)c4nn3)cc2o1 [Cpd 3, 6-{7-[(3S,4S)-3-fluoro-2,2,6,6-tetramethylpiperidin-4-yl]-7H-pyrrolo[2,3-c]pyridazin-3-yl}-2-methyl-1,3-benzoxazol-5-ol] | < 100 nM |  |
| Cc1ccc2cc(-c3cc4ccn([C@H]5CC(C)(C)NC(C)(C)[C@H]5F)c4nn3)c(O)cc2n1 [Cpd 32, 6-{7-[(3S,4S)-3-fluoro-2,2,6,6-tetramethylpiperidin-4-yl]-7H-pyrrolo[2,3-c]pyridazin-3-yl}-2-methylquinolin-7-ol] | < 100 nM |  |
| Cc1nc2cc(O)c(-c3cc4ncn([C@H]5CC(C)(C)NC6(CC6)C5)c4nn3)cc2s1 [Cpd 11, 6-{7-[(7S)-5,5-dimethyl-4-azaspiro[2.5]octan-7-yl]-7H-imidazo[4,5-c]pyridazin-3-yl}-2-methyl-1,3-benzothiazol-5-ol] | < 100 nM |  |
| Cn1ncc2cc(O)c(-c3cc4c(nn3)N([C@H]3CC(C)(C)NC(C)(C)[C@H]3F)CC4)cc21 [Cpd 62, 6-{7-[(3S,4S)-3-fluoro-2,2,6,6-tetramethylpiperidin-4-yl]-6,7-dihydro-5H-pyrrolo[2,3-c]pyridazin-3-yl}-1-methyl-1H-indazol-5-ol] |  | < 100 nM |
| COc1cc(=O)oc2cc(O)c(-c3cc4c(nn3)N([C@H]3CC(C)(C)NC(C)(C)[C@H]3F)CC4)cc12 [Cpd 78, 6-{7-[(3S,4S)-3-fluoro-2,2,6,6-tetramethylpiperidin-4-yl]-6,7-dihydro-5H-pyrrolo[2,3-c]pyridazin-3-yl}-7-hydroxy-4-methoxy-2H-1-benzopyran-2-one] | < 100 nM |  |
| Cc1nc2cc(-c3cc4c(nn3)N([C@H]3CC(C)(C)NC(C)(C)[C@H]3F)CC4)c(O)c(F)c2o1 [Cpd 103, 7-fluoro-5-{7-[(3S,4S)-3-fluoro-2,2,6,6-tetramethylpiperidin-4-yl]-6,7-dihydro-5H-pyrrolo[2,3-c]pyridazin-3-yl}-2-methyl-1,3-benzoxazol-6-ol] | < 100 nM |  |
| Cc1cc2cc(-c3cc4c(nn3)N([C@H]3CC(C)(C)NC(C)(C)[C@H]3F)CC4)c(O)cc2oc1=O [Cpd 73, 6-{7-[(3S,4S)-3-fluoro-2,2,6,6-tetramethylpiperidin-4-yl]-6,7-dihydro-5H-pyrrolo[2,3-c]pyridazin-3-yl}-7-hydroxy-3-methyl-2H-1-benzopyran-2-one] | < 100 nM |  |
| Cc1nc2cc(-c3cc4ccn([C@H]5CC(C)(C)NC(C)(C)[C@H]5F)c4nn3)c(O)c(F)c2o1 [Cpd 102, 7-fluoro-5-{7-[(3S,4S)-3-fluoro-2,2,6,6-tetramethylpiperidin-4-yl]-7H-pyrrolo[2,3-c]pyridazin-3-yl}-2-methyl-1,3-benzoxazol-6-ol] | < 100 nM |  |
| CC1(C)C[C@H](n2ccc3cc(-c4cc5cccnc5cc4O)nnc32)[C@H](F)C(C)(C)N1 [Cpd 16, 6-{7-[(3S,4S)-3-fluoro-2,2,6,6-tetramethylpiperidin-4-yl]-7H-pyrrolo[2,3-c]pyridazin-3-yl}quinolin-7-ol] | < 100 nM |  |
| Cn1nnc2cc(-c3cc4ccn([C@H]5CC(C)(C)NC(C)(C)[C@H]5F)c4nn3)c(O)cc21 [Cpd 41, 5-{7-[(3S,4S)-3-fluoro-2,2,6,6-tetramethylpiperidin-4-yl]-7H-pyrrolo[2,3-c]pyridazin-3-yl}-1-methyl-1H-benzotriazol-6-ol] | < 100 nM |  |
| Cc1cnc2cc(O)c(-c3cc4c(nn3)N([C@H]3CC(C)(C)NC(C)(C)[C@H]3F)CC4)cc2n1 [Cpd 55, 7-{7-[(3S,4S)-3-fluoro-2,2,6,6-tetramethylpiperidin-4-yl]-6,7-dihydro-5H-pyrrolo[2,3-c]pyridazin-3-yl}-2-methylquinoxalin-6-ol] | < 100 nM |  |
| CC1(C)C[C@H](n2ccc3cc(-c4cc5ncc(F)cc5cc4O)nnc32)[C@H](F)C(C)(C)N1 [Cpd 40, 3-fluoro-7-{7-[(3S,4S)-3-fluoro-2,2,6,6-tetramethylpiperidin-4-yl]-7H-pyrrolo[2,3-c]pyridazin-3-yl}quinolin-6-ol] | < 100 nM |  |
| Cc1nc2cc(-c3cc4ccn([C@H]5CC(C)(C)NC(C)(C)[C@H]5F)c4nn3)c(O)cc2o1 [Cpd 6, 5-{7-[(3S,4S)-3-fluoro-2,2,6,6-tetramethylpiperidin-4-yl]-7H-pyrrolo[2,3-c]pyridazin-3-yl}-2-methyl-1,3-benzoxazol-6-ol] | < 100 nM |  |
